Test results as given in PMC10469688, “Comparative pharmacokinetics and safety evaluation of high dosage regimens of Andrographis paniculata aqueous extract after single and multiple oral administration in healthy participants” (Frontiers in Pharmacology, 2023).
Read-outs that look alike come from different tables or passages of the source.

Tests used:
[1] = Plasma pharmacokinetics after single and multiple oral administration of A. paniculata aqueous extract capsules in healthy participants (HPLC-MS/MS, non-compartmental analysis); type: in vivo, human; conditions: for CL/F / AUC(0-t) / MRT / Vd/F / half-life / Tmax / AUC(0-inf) / Cmax: human; for CL/F / AUC(0-t) / MRT / Vd/F / half-life / Tmax / AUC(0-inf): plasma; for MRT: read-out: MRT; for Vd/F: read-out: Vd/F; for Tmax: read-out: Tmax; for AUC(0-inf): read-out: AUC(0-inf); for Cmax: read-out: Cmax
Protocol: (§1) An opened-label, two-dosage, single- and multiple-oral dosing, single center, phase I safety and pharmacokinetic study was conducted in healthy participants while they were under a fasting condition. […] Two weeks prior to the beginning of the clinical study, the volunteers were advised to abstain from other dietary supplements, herbal products, or any concomitant medicines. During the period of the study, no other medications were allowed. All participants fasted overnight for at least 8 h before drug administration. The study conducted a single-dose investigation on day 1 by oral administering A. paniculata extract capsules once in both groups. Twelve participants in group 1 received 3 capsules orally (equivalent to 60 mg of andrographolide) with 240 mL of water, while another twelve participants in group 2 received 6 capsules (equivalent to 120 mg of andrographolide). This was followed by serial blood sampling for up to 24 h after dosing. For blood collection, 6 mL of venous blood in EDTA tube was collected via a forearm vein catheter at each time point including pre-dose (0 h), and post-dose after oral administration (T 0.167, 0.333, 0.5, 0.75, 1, 1.5, 2, 4, 6, 8, 10, 12 and 24 h). Subsequently, observation of elimination continued until 48 h post-dose to ensure complete excretion of the major active diterpenoids through urine. Urine samples were collected at day 0 (the day prior to dosing) and day 1–2 (T 0–4, 4–8, 8–12,12–24, 24–32, 32–40, and 40–48 h after dosing). The study then proceeded to investigate multiple doses in both groups by administering continuous oral doses from day 3 until the morning of day 5. (dosing at T48, 56, 64, 72, 80, 88, and 96 h). In group 1, three capsules were administered orally before meals, three times a day (3 × 3 capsules at 8-h intervals, calculated as 180 mg/day of andrographolide); whereas in group 2, six capsules were administered daily, three times a day (6 × 3 capsules at 8-h intervals, calculated as 360 mg/day of andrographolide). For serial blood sampling of multiple doses, 6 mL of blood samples were collected starting in the morning of day 5 (sampling timepoints T 96, 96.167, 96.333, 96.5, 96.75, 97, 97.5, 98, 100, 102, and 104 h post dose).
(§2) All collected blood samples were centrifuged at 4,000 rpm, 4^οC, for 5 min. Plasma was collected and stored in cryotubes at −70^οC until analysis. Urine was kept as 10 mL aliquot samples at each time point and stored at −70^οC until analysis. Extraction was performed by protein precipitation method as previously reported ([Songvut et al., 2023]). Briefly, 50 µL of either a plasma or urine sample was mixed with 200 µL of methanol containing an internal standard (IS) of digoxin (50 ng/mL). Pretreated samples were vortexed for 10 min and were then centrifuged at 12,000 rpm, 4°C, for 10 min. The supernatants were filtered through a 0.2 µm PVDF membrane and were subsequently transferred to vials for HPLC-MS/MS analysis.
(§3) Hydrolysis of the glucuronidated and sulfated conjugates was conducted by enzymatic incubation as our previous published method ([Songvut et al., 2023]). To analyze the metabolic conjugations, 50 μL of either a plasma or urine sample was pre-incubated at 37^οC with 50 µL of either of β-glucuronidase in sodium phosphate buffer (pH 6.8) for 30 min, or sulfatase in sodium acetate buffer (pH 5) for 2 h. IS (50 ng/mL) was then added along with 150 μL of methanol to precipitate protein. The extracted samples were then vortexed and centrifuged at 12,000 rpm, 4^οC, for 10 min. The supernatants were collected by filtering through a 0.2-µm PVDF membrane before HPLC-MS/MS injection.
(§4) Analysis for the concentrations of targeted compounds in plasma and urine samples were carried out using HPLC-MS/MS at the Laboratory of Pharmacology, Chulabhorn Research Institute, Bangkok, Thailand. The quantitative determination was performed according to a previously validated method ([Songvut et al., 2023]). […]

[2] = Cumulative urinary excretion after single oral administration of A. paniculata aqueous extract capsules in healthy participants; type: in vivo, human; conditions: for Cumulative urine: urine T 0–48 h
Protocol: as §1, §2, §3, §4

[3] = design: method as in Panossian et al., 2000; conditions: previous pharmacokinetic studies; ref Panossian et al., 2000; cited from earlier work
[4] = multiple oral doses 60 mg × 3 times/day of andrographolide, n = 12, mean ± SD
[5] = multiple oral doses 60 mg × 3 times/day of andrographolide, n = 12, mean ± SD, read-out: AUC(0–8h)
[6] = multiple oral doses 60 mg × 3 times/day of andrographolide, n = 12, median [IQR]
[7] = multiple oral doses 120 mg × 3 times/day of andrographolide, n = 11, mean ± SD
[8] = multiple oral doses 120 mg × 3 times/day of andrographolide, n = 11, mean ± SD, read-out: AUC(0–8h)
[9] = multiple oral doses 120 mg × 3 times/day of andrographolide, n = 11, median [IQR]
[10] = single oral dose equivalent to 60 mg andrographolide, n = 12, mean ± SD
[11] = single oral dose equivalent to 60 mg andrographolide, n = 12, mean ± SD, read-out: AUC(0–24h)
[12] = single oral dose equivalent to 60 mg andrographolide, n = 12, median [IQR]
[13] = single oral dose equivalent to 120 mg andrographolide, n = 11, mean ± SD
[14] = single oral dose equivalent to 120 mg andrographolide, n = 11, mean ± SD, read-out: AUC(0–24h)
[15] = single oral dose equivalent to 120 mg andrographolide, n = 11, median [IQR]
[16] = multiple oral doses 60 mg × 3 times/day of andrographolide, plasma T 0–8 h, n = 12, mean ± SD
[17] = multiple oral doses 120 mg × 3 times/day of andrographolide, plasma T 0–8 h, n = 11, mean ± SD
[18] = single oral dose equivalent to 60 mg andrographolide, plasma T 0–24 h, n = 12, mean ± SD
[19] = single oral dose equivalent to 120 mg andrographolide, plasma T 0–24 h, n = 11, mean ± SD

SMILES: C=C1CC[C@@H]2[C@](C)(CO)[C@H](O)CC[C@@]2(C)[C@@H]1C/C=C1/C(=O)OC[C@H]1O [Andrographolide, andrographolide]
- CL/F [1, 4]: 75 mL/min/kg
- AUC(0-t) [1, 5]: 195 ± 24 ng·h/mL
- MRT [1, 4]: 4.3 ± 0.99 h
- Vd/F [1, 4]: 18 ± 8 L/kg
- half-life [1, 6]: 2.3 h
- Tmax [1, 6]: 0.65 h
- CL/F [1, 7]: 91.7 mL/min/kg
- AUC(0-t) [1, 8]: 345 ± 48.8 ng·h/mL
- MRT [1, 7]: 3.4 ± 0.45 h
- Vd/F [1, 7]: 14.7 ± 3.7 L/kg
- half-life [1, 9]: 1.7 h
- Tmax [1, 9]: 0.8 h
- CL/F [1, 10]: 81.7 mL/min/kg
- AUC(0-inf) [1, 10]: 210 ± 25.4 ng·h/mL
- AUC(0-t) [1, 11]: 210 ± 25.4 ng·h/mL
- MRT [1, 10]: 6 ± 0.45 h
- Vd/F [1, 10]: 9 ± 1.66 L/kg
- half-life [1, 12]: 1.3 h
- Tmax [1, 12]: 0.8 h
- CL/F [1, 13]: 100 mL/min/kg
- AUC(0-inf) [1, 13]: 345 ± 63.5 ng·h/mL
- AUC(0-t) [1, 14]: 345 ± 63.5 ng·h/mL
- MRT [1, 13]: 5.3 ± 0.63 h
- Vd/F [1, 13]: 10.8 ± 1.6 L/kg
- half-life [1, 15]: 1.2 h
- Tmax [1, 15]: 0.8 h
- Cmax [1, 16]: 85.9 ± 19 ng/mL
- Cmax [1, 17]: 172 ± 54.4 ng/mL
- Cmax [1, 18]: 72.1 ± 28.7 ng/mL
- Cmax [1, 19]: 112 ± 33.4 ng/mL
- Amount excreted in urine on doubling the oral dose ([2]; 60 vs 120 mg of andrographolide): nearly corresponding doubling
- Cumulative urine [2, 10]: 372 ± 159 µg
- Cumulative urine [2, 13]: 1,193±553 μg
- Tmax [3]: 1.36 h

SMILES: C=C1CC[C@@H]2[C@](C)(CO[C@@H]3O[C@H](CO)[C@@H](O)[C@H](O)[C@H]3O)CCC[C@@]2(C)[C@@H]1CCC1=CCOC1=O [Neoandrographolide, neoandrographolide]
- Detectability as conjugated metabolites in plasma ([1]; glucuronide and sulfate derivatives): less detectable
- CL/F [1, 4]: 65 mL/min/kg
- AUC(0-inf) [1, 4]: 69.7 ± 12.9 ng·h/mL
- AUC(0-t) [1, 5]: 69.7 ± 12.9 ng·h/mL
- MRT [1, 4]: 1.7 ± 0.22 h
- Vd/F [1, 4]: 3.4 ± 0.78 L/kg
- half-life [1, 6]: 0.6 h
- Tmax [1, 6]: 1 h
- CL/F [1, 7]: 71.7 mL/min/kg
- AUC(0-inf) [1, 7]: 128 ± 29.1 ng·h/mL
- AUC(0-t) [1, 8]: 128 ± 29.1 ng·h/mL
- MRT [1, 7]: 1.9 ± 0.18 h
- Vd/F [1, 7]: 1.2 ± 0.29 L/kg
- half-life [1, 9]: 0.19 h
- Tmax [1, 9]: 1 h
- CL/F [1, 10]: 36.7 mL/min/kg
- AUC(0-inf) [1, 10]: 41 ± 4.9 ng·h/mL
- AUC(0-t) [1, 11]: 41 ± 4.9 ng·h/mL
- MRT [1, 10]: 1.8 ± 0.33 h
- Vd/F [1, 10]: 0.74 ± 0.16 L/kg
- half-life [1, 12]: 0.23 h
- Tmax [1, 12]: 0.9 h
- CL/F [1, 13]: 88.3 mL/min/kg
- AUC(0-inf) [1, 13]: 104 ± 22.6 ng·h/mL
- AUC(0-t) [1, 14]: 104 ± 22.6 ng·h/mL
- MRT [1, 13]: 2.2 ± 0.22 h
- Vd/F [1, 13]: 1.5 ± 0.33 L/kg
- half-life [1, 15]: 0.19 h
- Tmax [1, 15]: 0.8 h
- Cmax [1, 16]: 34.8 ± 6.3 ng/mL
- Cmax [1, 17]: 60.7 ± 12.2 ng/mL
- Cmax [1, 18]: 24.4 ± 5.6 ng/mL
- Cmax [1, 19]: 50.4 ± 19.2 ng/mL
- Cumulative urine [2, 10]: 24.0 ± 18.1 µg
- Cumulative urine [2, 13]: 66.7 ± 29.3 µg
